Data: US8354548B2, “Glycine chroman-6-sulfonamides for use as inhibitors of diacylglycerol lipase” (priority 2010, dated 2013)
Where two headings read alike, the source gives them in different places.

Target: T1, LG586 enzyme (Homo sapiens, UniProt Q9Y4D2)
T1 sequence (Q9Y4D2 1-1042): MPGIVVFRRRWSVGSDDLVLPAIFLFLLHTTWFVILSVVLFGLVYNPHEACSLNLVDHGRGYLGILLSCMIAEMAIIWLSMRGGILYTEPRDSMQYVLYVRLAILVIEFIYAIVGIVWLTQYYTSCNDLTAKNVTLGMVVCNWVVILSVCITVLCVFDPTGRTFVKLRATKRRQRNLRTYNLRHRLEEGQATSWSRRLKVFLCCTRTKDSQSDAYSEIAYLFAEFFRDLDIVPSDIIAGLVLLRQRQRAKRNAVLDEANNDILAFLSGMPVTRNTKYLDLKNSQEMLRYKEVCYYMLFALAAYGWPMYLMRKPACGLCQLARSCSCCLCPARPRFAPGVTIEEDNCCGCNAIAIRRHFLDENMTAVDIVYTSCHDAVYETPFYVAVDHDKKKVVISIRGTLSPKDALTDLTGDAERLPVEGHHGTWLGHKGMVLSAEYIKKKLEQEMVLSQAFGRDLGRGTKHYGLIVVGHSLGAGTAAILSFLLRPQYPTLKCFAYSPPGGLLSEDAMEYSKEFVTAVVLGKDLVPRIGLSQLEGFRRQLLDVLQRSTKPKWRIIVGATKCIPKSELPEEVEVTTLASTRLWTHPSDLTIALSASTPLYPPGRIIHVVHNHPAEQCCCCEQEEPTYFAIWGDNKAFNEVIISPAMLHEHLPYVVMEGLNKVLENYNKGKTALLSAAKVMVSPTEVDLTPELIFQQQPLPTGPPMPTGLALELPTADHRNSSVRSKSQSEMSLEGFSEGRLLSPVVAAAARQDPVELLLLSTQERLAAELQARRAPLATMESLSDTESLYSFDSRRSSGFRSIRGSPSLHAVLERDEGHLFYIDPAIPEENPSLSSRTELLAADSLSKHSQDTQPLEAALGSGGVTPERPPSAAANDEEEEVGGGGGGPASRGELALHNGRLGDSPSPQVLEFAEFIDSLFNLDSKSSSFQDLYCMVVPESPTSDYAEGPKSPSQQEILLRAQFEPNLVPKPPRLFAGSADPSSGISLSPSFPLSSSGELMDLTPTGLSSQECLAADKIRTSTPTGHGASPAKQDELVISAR
Type: biochemical
Details: LG586 membrane prep, 250 μM PNP substrate, 10 min preincubation
Experimental: Black non-binding surface Corning plates (3655) were spotted with 0.9 μL of compound in twenty point 1:3 dilutions. The same volume of dimethyl sulfoxide (DMSO) was added to column 23 of the plate.
A membrane prep from a stable HEK cell line expressing LG586 was prepared by the Cell Resource Group at BMS in Hopewell, N.J. The protein concentration of the membrane prep was 1.28 μg/μL. […] For the assay, membrane was thawed to room temperature and then added to the assay buffer, 100 mM HEPES in MQ water at pH 7.5. The concentration of the LG586 enzyme in the assay is 0.005 μg/mL.
The substrate used in this assay was purchased from Sigma (N9876) p-nitrophenyl butyrate (PNP). The substrate is received in the liquid form and must be diluted with DMSO. […] The final concentration of the substrate is 250 μM.
Enzyme was added to the plates 80 μL/well using a Multi-drop Combi (Thermo). The plates were incubated with the compound for 10 minutes at room temperature. Then 9 μL of substrate was added to each well and the plates were immediately read on the Viewlux Imager (Perkin Elmer) in absorbance mode with the excitation filter of 405 nm and emission filter of 564/250 nm. The read was kinetic, plates were read once every 30 seconds for 5 minutes and then slopes were calculated for each well and the data was reduced with in-house software.

With “2-(2,2-dimethyl-N-(4-(naphthalen-1-yl)benzyl)chroman-6-sulfonamido)acetic acid [Example 23]” as the substance, how does the IC50 (read-out: Data Range*) read?
Its IC50 is 2 to 100 nM.

What about the IC50 (read-out: LE_LG586PNP_DR (IC50)) of the same substance?
Its IC50 is 3 nM.
